The structures appear in SMILES notation.

Common to all, as to type: cell-based, human
Assay [1] has as its system Raji MEK DD cells. The assay is described as follows: Erk1/2 phosphorylation in Raji cells expressing MEK DD (Western blot). The following applies: 1 h. As to the method: (§1) Figure 5 Inhibition of Erk1/2 phosphorylation by X-370 contributed to its antiproliferative activity (A-C) X-370 inhibited Erk1/2 phosphorylation via PI3K-PDK1-MEK1/2 cascade but not the PI3K-Gab1 positive feedback loop. (A) Raji and SU-DHL-6 cells were exposed to 1 μM X370 for 3 h and protein fraction from cellular membrane was separated using Native Membrane Protein Extraction Kit and probed. WCL: whole cell lysate. (B) Inhibition of PDK1 or MEK1/2 abrogated Erk1/2 phosphorylation. Cells were treated with pharmacological inhibitors of Raf (AZ 628, PLX4032), MEK1/2 (AZD6244), p90RSK (BI-D1870), PI3Kδ (X-370), PDK1 (BX-912), Akt (MK-2206), mTOR (AZD8055) or mTORC1 (Rapamycin) respectively and indicated proteins were detected. (C) X-370 disrupted the association between PDK1 and MEK1/2. Raji cells were treated with 1 μM X370 for 1 h and cell lysates were immunoprecipitated with anti-PDK1 antibody and indicated proteins were detected. WCL: whole cell lysate. […] (E) Raji and Raji MEK DD cells were treated with X-370 for 72 h and cell proliferation was detected by CCK-8 assay. (F) Raji MEK DD cells were treated with X-370 and AZD6244 and cell proliferation was detected by CCK-8 assay. Data were show as mean ± SD of three independent experiments. *: p < 0.05 determined by t-tests at each data point. […]

For assay [2], the system named is Raji MEK DD cells. The assay is described as follows: Proliferation of Raji MEK DD cells (CCK-8). The conditions noted are these: Raji MEK DD; 1 μM, 72 h, CCK-8. As to the method: as §1, with “(C) X-370 disrupted the association between PDK1 and MEK1/2.” left out, “detected.” for “detected. WCL: whole cell lysate.”
luciferase. Raji cells expressing MEK DD or luciferase were incubated with 1 μM AZD6244 or DMSO control respectively for 72 h, and then cell viability were assessed by CCK-8 reagent. […]

In a further assay the test system is Raji cells. Description: Signaling by Western blot. As to the method:
(§2) Raji and SU-DHL-6 cells were treated with X-370 for 1 h (left panel) or treated with 0.5 μM X-370 for indicated times (middle panel). Right panel, Raji cells were incubated in fresh medium following treatment with 0.5 μM X-370 for 1 h. Indicated proteins were detected. (B) Raji-R (the rituximab-resistant derivatives of Raji cells) cells were resistant to X-370. The activity of X-370 on the proliferation of Raji parent and Raji-R cells was determined by CCK-8 assay as described in the methods section. (C) X-370 blocked phosphorylation of Akt but not Erk1/2 in Raji-R cells. Raji-R cells were treated with X-370 for 1h and indicated proteins were detected. Data shown are representative from three independent experiments.
(§3) Figure 5 Inhibition of Erk1/2 phosphorylation by X-370 contributed to its antiproliferative activity (A-C) X-370 inhibited Erk1/2 phosphorylation via PI3K-PDK1-MEK1/2 cascade but not the PI3K-Gab1 positive feedback loop. (A) Raji and SU-DHL-6 cells were exposed to 1 μM X370 for 3 h and protein fraction from cellular membrane was separated using Native Membrane Protein Extraction Kit and probed. WCL: whole cell lysate. (B) Inhibition of PDK1 or MEK1/2 abrogated Erk1/2 phosphorylation. Cells were treated with pharmacological inhibitors of Raf (AZ 628, PLX4032), MEK1/2 (AZD6244), p90RSK (BI-D1870), PI3Kδ (X-370), PDK1 (BX-912), Akt (MK-2206), mTOR (AZD8055) or mTORC1 (Rapamycin) respectively and indicated proteins were detected. (C) X-370 disrupted the association between PDK1 and MEK1/2. Raji cells were treated with 1 μM X370 for 1 h and cell lysates were immunoprecipitated with anti-PDK1 antibody and indicated proteins were detected. WCL: whole cell lysate. (D-F) Inhibition of Erk1/2 phosphorylation was required for the anti-proliferative activity of X-370. (D) Raji cells ectopically expressing a constitutively activated phospho-mimic MEK1 mutant (MEK1 […] or MEK DD) were incubated with X-370 or AZD6244 for 1 h and then subjected to Western blot. (E) Raji and Raji MEK DD cells were treated with X-370 for 72 h and cell proliferation was detected by CCK-8 assay. (F) Raji MEK DD cells were treated with X-370 and AZD6244 and cell proliferation was detected by CCK-8 assay. Data were show as mean ± SD of three independent experiments. *: p < 0.05 determined by t-tests at each data point. […]
(§4) Cells were treated as indicated conditions and then subjected to lysate to perform standard Western blot as described previously1. Briefly, whole-cell lysates and SDS-loading buffer diluted cell fractions were analyzed on SDS-PAGE gels. Transfer to nitrocellulose membranes, nonfat milk blocking, probing with indicated primary antibodies and the corresponding HRP-conjugated second antibodies.
(§5) Chemiluminescence were performed and captured using ImageQuant LAS 4000 (GE healthcare Life Sciences, Piscataway, NJ, USA) and band intensity was measure both with ImageQuant™ TL (GE Healthcare Life Sciences) 2. […]
(§6) (also on this page, place not known: PI3Kδ -dependent MEK1/2 - B -cell previously 1. whole -cell SDS -loading SDS -PAGE HRP -conjugated (G E A B Val828 Trp760 Thr750 Met752 Tyr813 affinity pocket specificity pocket hinge Glu826 CAL-101 X-370) […]
(§7) (1 picture or pasted object on this page, not shown here)

The test system of the next assay is SU-DHL-6 cells. Description: Signaling by Western blot. As to the method: as §2, §3, §4, §5, §6, §7
A general note: Immunoblotting shows a protein as a band on a membrane.

Assay [3] relates to Raji cells expressing luciferase. The assay is described as follows: Viability of Raji cells expressing luciferase (CCK-8). The conditions noted are these: 1 μM, 72 h. As to the method: Cell viability was assessed using Cell Counting Kit (CCK-8, Dojindo, Japan) following the manufacturer's protocol and OD values were measured with a Spectramax M5 plate reader (Molecular Devices, Sunnyvale, CA)[45].
Figure S6: CAL-101 inhibited both Akt and Erk1/2 signaling in Raji and SU-DHL -6 cells. Raji and SU-DHL-6 cells were incubated with CAL-101 for an hour and then collected to perform Western blot, the […]
luciferase. Raji cells expressing MEK DD or luciferase were incubated with 1 μM AZD6244 or DMSO control respectively for 72 h, and then cell viability were assessed by CCK-8 reagent. NS indicated no significance. Data were show as mean + SD of three independent experiments. […]

The subject of a further assay is Rh30-Myr-p110δ cells. The assay is described as follows: Akt phosphorylation in isogenic Rh30-Myr-p110 cells (Western blot). The conditions noted are these: panel of isogenic Rh30-Myr-p110α/β/γ/δ cells, 1 h.
Text: To assess the selectivity of X-370 in the context of an isogenic cellular background, we generated a panel of Rh30 human rhabdomyosarcoma cell lines each of which stably expresses a single myristoylated (Myr)-epitope tagged p110 human class I PI3K catalytic subunit, termed as Rh30-Myr-p110α, Rh30-Myr-p110β, Rh30-Myr-p110γ or Rh30-Myr-p110δ. In these cells, endogenous PI3K is not activated under serum-free culture conditions, whereas the ectopically expressed p110 isoforms are membrane-anchored and constitutively active due to myristoylation at N-terminal. Utilizing this cell panel, isoform-specific PI3K activity can be determined for any given inhibitor[25]. These cells were treated with X-370 and phosphorylated Akt was detected as the readout of PI3K activity. X-370 inhibited phosphorylation of Akt at both Thr308 and Ser473 in a dose-dependent manner in four tested cell lines (Figure 2A). […] Similar property was also observed in CAL-101 (Figure S2).
Cell lysates were probed with indicated antibodies. The IC50 values were calculated based on relative band intensity measured with ImageQuant™ TL (GE Healthcare Life Sciences, Piscataway, NJ) (B). Data shown are mean values from three independent experiments. (C, D, E, F) X-370 blocked stimuli-triggered PI3Kδ activation. MEF cells and THP-1 were starved in serum-free medium for 12 h or 4 h respectively and X-370 were added for an additional 1 h treatment following stimulation of IGF-1 at 100 ng/ml for MEF cells (C), LPA at 10 μM for MEF cells (D), MCP-1 at 100ng/ml for THP-1 (E) and M-CSF at 50 ng/ml for THP-1 (F). Similar results were derived from 3 independent experiments. TEXT PRINTED IN THE PICTURE: (B) X-370: IC50 (μM) in Rh30-Myr-p110s, Akt pT308, PI3Kα: 0.68; IC50 (μM) in Rh30-Myr-p110s, Akt pT308, PI3Kβ: 0.4; IC50 (μM) in Rh30-Myr-p110s, Akt pT308, PI3Kγ: 0.46; IC50 (μM) in Rh30-Myr-p110s, Akt pT308, PI3Kδ: 0.032; IC50 (μM) in Rh30-Myr-p110s, Akt pS473, PI3Kα: 0.53; IC50 (μM) in Rh30-Myr-p110s, Akt pS473, PI3Kβ: 0.29; IC50 (μM) in Rh30-Myr-p110s, Akt pS473, PI3Kγ: 0.23; IC50 (μM) in Rh30-Myr-p110s, Akt pS473, PI3Kδ: 0.02 DOUBTS OF THE COPYIST ABOUT THIS PICTURE: Panel B prints no substance label in the table itself; the label X-370 is taken from the other panels of the same picture, where it is the only substance printed. […]
as §4, §5, §6
(1 picture or pasted object on this page, not shown here) […]
in serum-free medium for 12 h and then incubated with serially diluted CAL -101 for an additional 1 h.
Cell lysates were probed with indicated antibodies. The IC50 values were calculated based on relative band intensity measured with ImageQuant™ TL (GE Healthcare Life Sciences, Piscataway, NJ). Data shown are mean values from three independent experiments.
Table S1: Inhibitory activity of X-370 against protein kinases […]
kinome at 10 μM. The relative kianse activity left in the presence of 10 μM were shown (Mi llipore […]
Kinase activity (% of control) Kinase activity (% of control) Kinase activity (% of control) […]
CDK1/cyclinB 97 Lck activated 89 Ret 125 […]

In the case of `Cn1cnc2c(F)c(Nc3ccc(Br)cc3Cl)c(C(=O)NOCCO)cc21` [AZD6244], in the assay on Raji MEK DD cells [1], the Erk1/2 phosphorylation result is given as “abolished”. Besides, the antiproliferative activity alone entry (in the assay with Raji MEK DD cells [2]; in assay [3]) was “little antiproliferative activity” in each case. The “phosphorylated Erk1/2, panel of pathway inhibitors” value in the assay on Raji cells (Raji (Figure 5B)) and in the assay with SU-DHL-6 cells (SU-DHL-6 (Figure 5B)) was “down-regulated” each time.
Consider `CC[C@H](Nc1ncnc2[nH]cnc12)c1nc2cccc(F)c2c(=O)n1-c1ccccc1` [CAL-101, idelalisib, reference compound], for which the “selectivity against PI3Kδ-mediated signaling at cellular level” value in the assay with Rh30-Myr-p110δ cells is given as “highly selective”. In addition, the “phosphorylation of Akt and Erk1/2” value with Raji cells (Raji, 1 h) was “downregulated at low nanomolar concentrations”; with SU-DHL-6 cells (SU-DHL-6, 1 h) it was “downregulated at low nanomolar concentrations”.
